Results as given in PubChem BioAssay AID652041 (Broad Institute, 2013).

Test system: P. falciparum HB3 in RBCs, SYBR Green DNA fluorescence
Test: antimalarial activity against intraerythrocytic HB3 parasites – HB3 strain, red blood cells, SYBR Green, cherry-picked, dose response (AID 652041);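 note: parasites exposed to compound for 72 hours before the DNA read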

SMILES | AC35 [µM]
O=C(CC1CC2CCC1C2)Nc1nc(-c2ccccn2)cs1 (stereo not drawn) | 3.99
CC(=O)NC(c1cccc([N+](=O)[O-])c1)c1ccc2cccnc2c1O (stereo not drawn) | 1.77
COc1ccc(/C=N/Nc2cc(C)nc(-n3nc(C)cc3C)n2)cc1 | 1.54
Cc1ccc(NC(=O)CN(C)C(=O)c2cccnc2Nc2cccc(C(F)(F)F)c2)cc1 | 10.5
COC(=O)C1=NN(C(=O)c2cccc(Br)c2)C(O)(c2ccc(Cl)cc2)C1 (stereo not drawn) | 31
O/N=C(\c1ccc(Cl)cc1Cl)c1ncc(C(F)(F)F)cc1Cl | 11.6
O=P(Nc1cccnc1)(Oc1ccccc1Cl)Oc1ccccc1Cl | 37.1
O=C(O)CSc1nc(-c2ccc(Cl)cc2)nc2c1oc1ccccc12 | 28.6
C[n+]1c2cc(N)ccc2cc2ccc(N)cc21 | 0.0524
CCCn1c(=O)c(C(=O)NCc2ccc(OC)c(OC)c2)c(O)c2ccccc21 | 21.8
Oc1ccc(Br)cc1/C=N/Nc1ccccn1 | 1.61
Cc1ccc2oc(-c3ccccc3)c(C(=O)O)c(=O)c2c1 | 20.3
Cc1ccc(Sc2ccc(NC(=O)CCl)cc2)cc1C | 0.321
CCn1c2ccc(C)cc2c2nc3cc(C(=O)O)ccc3nc21 | 37.1
Cc1ccc(Sc2cc(C)nc(-c3ccccn3)n2)cc1 | 6.03
COc1cc2cnc(-c3ccccc3)c(C(=O)c3ccc(F)cc3)c2cc1OC | 21.6
Cc1cc(Nc2ccccc2)nn1C(=O)c1ccccc1 | 43.1
Nc1cc2nc3ccccc3oc-2cc1=O | 1.01
COc1ccc(N=N/C(=C\O)C(=O)c2cccs2)cc1 | 7.99
C=CCn1c(-c2cc(-c3ccc(C)cc3)nc3ccccc23)n[nH]c1=S | 14.1
O=C1c2cc(F)ccc2-n2c1nc1ccccc1c2=O | 0.0251
S=C(Nc1ccc(Oc2ccccc2)cc1)NC1CCCCCC1 | 4.03

SMILES | AC35 [µM]
Cc1ccc(O)c(-c2cc(-c3ccccc3C)[nH]n2)c1 | 6.3
COc1ccc2[nH]c(=O)c(CN(Cc3cccnc3)C(=O)Nc3ccccc3)cc2c1 | 15.7
COc1cnc(-c2ccccn2)nc1Sc1ccc(C)cc1 | 3.64
COC(=O)c1cccc2c1-c1ccccc1/C2=N/O | 16.5
CC1=CC(C)(C)N(S(=O)(=O)c2ccc(C)cc2)c2ccc(C)cc21 | 18.4
CCCCCCCn1c(=O)c(C(=O)OC)c(N)c2ccccc21 | 4.22
Oc1c(C(Nc2cccc(C(F)(F)F)c2)c2ccncc2)ccc2cccnc12 (stereo not drawn) | 1.39
CC(C)(C)C(O)C(Cc1ccccc1Cl)n1cncn1 (stereo not drawn) | 39.3
CC(C)C(=O)NC(c1cccc([N+](=O)[O-])c1)c1ccc2cccnc2c1O (stereo not drawn) | 0.826
CCc1ccc(OCc2n[nH]c(=S)n2Cc2ccccc2)cc1 | 34.4
Cc1ccccc1Oc1nc(-c2ccccn2)nc2ccccc12 | 4.4
O=C(c1ccccc1)N1C(=O)C(c2ccccc2)Oc2ccccc21 (stereo not drawn) | 37.1
CCOC(=O)N1C(=O)C2(CCCCC2)N(c2ccccc2Cl)C1=S | 30.5
O=C(Nc1ccc(Cl)cc1C(=O)Nc1ccc(Br)cn1)c1ccco1 | 16.5
CCCCCOc1ccc(CSc2n[nH]c(C)n2)cc1 | 8.7
COc1ccccc1C1CCN(C(=O)c2ccc(Cl)cc2)CC1 | 28.6
O=C(Oc1c(Cl)cc(Cl)c2cccnc12)c1cccs1 | 19
Cc1ccc(C)c(/C=C/C(=O)c2ccccc(=O)c2O)c1 | 8.27
CCCCC(CC)c1nnc(NC(=O)c2cccs2)s1 (stereo not drawn) | 37.3
CCN(CC)C(=O)CSc1ncnc2sc(-c3ccccc3)cc12 | 36.6
CCCCCCn1c(=O)c(C(=O)Nc2ncccc2C)c(O)c2ccccc21 | 4.29
O=C(COc1ccc([N+](=O)[O-])cc1)Nc1nc(-c2ccccn2)cs1 | 6.38

SMILES | AC35 [µM]
O=C(CSc1ccc(-c2ccccn2)nn1)c1ccccc1 | 28
C=CCN(CC=C)C(=S)NC(=O)c1ccc(C)c(Br)c1 | 9.72
C=C(C)COc1ccc(-c2[nH]ncc2-c2ccc(Br)cc2)c(O)c1 | 2.25
Cc1cccc(Nc2nc(-c3ccc(O)cc3O)cs2)n1 | 18.6
CN1CCN(C(=O)c2cc(COc3ccc(F)cc3Cl)on2)CC1c1ccccc1 (stereo not drawn) | 33.5
COc1ccc(Sc2nc(-c3ccccn3)ncc2OC)cc1 | 3.53
Cc1ccc(O)c(C2=NNC(c3ccc(Cl)cc3)C2)c1 (stereo not drawn) | 3.59
CCCS(=O)(=O)c1c(S(=O)(=O)CCC)c2c(C)cccn2c1C(=O)N/N=C/c1cc(O)cc(O)c1 | 10.5
Oc1c(I)cc(Cl)c2cccnc12 | 1.67
O/N=C(\c1ccc(Cl)cc1)c1cc2ccccc2o1 | 16.4
Cc1nc2ccc(C(C(F)(F)F)(C(F)(F)F)C(F)(F)F)cc2[nH]1 | 11.2
CCCC1CCC(c2ccc(/C(N)=N/O)cc2)CC1 (stereo not drawn) | 24
CCOC(=O)c1ccc(NC(=S)N(Cc2cccnc2)Cc2ccco2)cc1 | 28.1
Cc1ccc(NC2(c3nnnn3-c3c(C)cccc3C)CCCCC2)cc1 | 18
O=C1Nc2c(Br)cccc2C1=O | 30.5
FC(F)(F)c1nc(SCc2ccc(Cl)cc2Cl)n[nH]1 | 40
Nc1nc(-c2ccccc2)c(-c2ccc([N+](=O)[O-])cc2)s1 | 39.6
CCCCNc1c(-c2cccc(Sc3ccc(OC)cc3)c2)nc2ccccn12 | 8.77
COc1cnc(-c2ccccn2)nc1N(C)c1ccccc1 | 3.46
O=C(Nc1nc(-c2ccccn2)cs1)c1ccc(Br)s1 | 0.662
CNc1ccc2oc(C[C@H]3O[C@@]4(CC[C@H]3C)O[C@H]([C@H](C)C(=O)c3ccc[nH]3)[C@H](C)C[C@H]4C)nc2c1C(=O)O | 0.833
O=C(OCC(=O)C12CC3CC(CC(C3)C1)C2)c1ccc(O)cc1 | 23.4

SMILES | AC35 [µM]
FC(F)(F)c1cccc(N2CCc3cn[nH]c32)c1 | 28.4
COc1cc([N+](=O)[O-])cc(/C=N/NC(=O)c2cncc(Br)c2)c1O | 16.8
Cc1ccccc1C(=O)NNC(=S)NC(=O)c1ccc(Cl)cc1Cl | 34.3
Cc1ccc(-c2c3c(nc4sc(C(N)=O)c(N)c24)CCCC3)o1 | 37.6
Fc1ccc(CCNC(=S)Nc2ccc(F)c(Cl)c2)cc1 | 14.1
O/N=C/c1ccccc1OCc1ccc(Cl)cc1 | 34.4
CCCCNC(=S)N/N=C1\CCCCc2ccccc21 | 16.8
CC(C)C(=O)NC(c1ccco1)c1ccc2cccnc2c1O (stereo not drawn) | 1.77
Cc1ccoc1C(=O)Nc1cccc(Oc2ccccc2)c1 | 6.15
O=[N+]([O-])c1cccc(C=NNc2ccc3ccccc3n2)c1O | 6.73
COc1cccc(/C=N/Nc2ncnc(Cl)c2N)c1O | 0.942
COc1cc(NS(=O)(=O)c2ccc(C)cc2)c2ncccc2c1 | 6.38
CN(C)c1nc(-c2ccccn2)nnc1-c1ccccc1 | 2.54
O=c1c(O)c(-c2ccccc2)oc2ccccc12 | 21.6
CCCCCCSc1ccc(-c2nc3ccccn3c2NCCCC)cc1 | 6.94
O=C(Nc1nnc(-c2cccs2)o1)c1cccc(Oc2ccccc2)c1 | 19.4
C=CCNc1nc(-c2ccccn2)nnc1-c1ccccc1 | 2.22
CCC(C)Sc1cccc(-c2nc3ccccn3c2NCc2ccccc2)c1 (stereo not drawn) | 12.1
CCC(C)c1ccc(NC(=S)NCCn2cc(Br)cn2)cc1 (stereo not drawn) | 10.5
O=C1c2ccccc2-n2c1nc1ccccc1c2=O | 0.0617
Cc1oc2c(c1C(=O)c1ccccc1)C(=O)C(=O)c1ccccc1-2 | 3.48
CCC(Oc1ccc(Br)cc1Cl)C(=O)Nc1nnc(C2CC2)s1 (stereo not drawn) | 33.3
